Results as given in ChEMBL document CHEMBL4364295, “Discovery of a First-in-Class Receptor Interacting Protein 2 (RIP2) Kinase Specific Clinical Candidate, 2-((4-(Benzo[d]thiazol-5-ylamino)-6-(tert-butylsulfonyl)quinazolin-7-yl)oxy)ethyl Dihydrogen Phosphate, for the Treatment of Inflammatory Diseases” (J Med Chem, 2019).

Tests used:
[1] = Prodrug conversion in rat hepatocytes assessed as benzothiazole ring opening at 20 uM measured after 4 hrs; type: ADME, cell-based, Hepatocyte
[2] = Drug uptake in Sprague-Dawley rat systemic circulation at 2 mg/kg, po or 1.1 mg/kg, iv by LC/MS/MS analysis; type: ADME, organism-based; settings: in vivo
[3] = Terminal half life in Sprague-Dawley rat assessed as 2-((4-(Benzo[d]thiazol-5-ylamino)-6-(tert-butylsulfonyl)quinazolin-7-yl)oxy)ethanol level at 2 mg/kg, po or 1.1 mg/kg, iv by LC/MS/MS analysis; type: ADME, organism-based; settings: in vivo
[4] = Oral bioavailability in Gottingen minipig assessed as 2-((4-(Benzo[d]thiazol-5-ylamino)-6-(tert-butylsulfonyl)quinazolin-7-yl)oxy)ethanol level at 1 mg/kg by LC/MS/MS analysis; type: ADME, organism-based, Sus scrofa; settings: pig, in vivo
[5] = Terminal half life in Gottingen minipig assessed as 2-((4-(Benzo[d]thiazol-5-ylamino)-6-(tert-butylsulfonyl)quinazolin-7-yl)oxy)ethanol level at 2 mg/kg, po or 1 mg/kg, iv by LC/MS/MS analysis; type: ADME, organism-based, Sus scrofa; settings: pig, in vivo
[6] = Prodrug conversion in rat hepatocytes assessed as (2S,3S,4S,5R,6R)-6-(2-(4-(benzo[d]thiazol-5-ylamino)-6-(tert-butylsulfonyl)quinazolin-7-yloxy)ethoxy)-3,4,5-trihydroxytetrahydro-2H-pyran-2-carboxylic acid formation at 20 uM measured after 4 hrs; type: ADME, cell-based, Hepatocyte
[7] = Cmax in Sprague-Dawley rat at 200 mg/kg, po using crystalline sample during 7 day dose ranging study by LC/MS/MS analysis; type: ADME, organism-based; parameters: dose 200 mg/kg, route oral; settings: in vivo
[8] = tested on: Intestinal mucosa; test: Antiinflammatory activity in crohn's disease patient derived inflamed intestinal mucosa assessed as reduction in IL6 production measured after overnight incubation by immunoassay; type: functional, tissue-based; settings: Homo sapiens
[9] = Cmax in Beagle dog at 2 mg/kg, po by LC/MS/MS analysis; type: ADME, organism-based, Canis lupus familiaris; parameters: dose 2 mg/kg, route oral; settings: in vivo
[10] = Volume of distribution at steady state in Gottingen minipig at 1 mg/kg, po or 0.4 mg/kg, iv by LC/MS/MS analysis; type: ADME, organism-based, Sus scrofa; settings: pig, in vivo, read-out: Vdss
[11] = Dose normalized AUC in Sprague-Dawley rat at 60 mg/kg, po using crystalline sample during 7 day dose ranging study by LC/MS/MS analysis; type: ADME, organism-based; settings: in vivo, 168 h

Row | Compound | Drug metabolism [1] | Drug uptake [2] | beta t1/2 [3] [h] | F [4] [%] | beta t1/2 [5] [h] | Drug metabolism [6] | Cmax [7] [ng/mL] | Activity [8] | IC50 [8] [nM] | Cmax [9] [ng/mL] | Vd [10] [L/kg] | AUC/dose [11] [kg·h/L]
1 | CC(C)(C)S(=O)(=O)c1cc2c(Nc3ccc4scnc4c3)ncnc2cc1OCCOP(=O)(O)O.[CaH2] | Metabolite_Detected | Not Active | 2.4 | 58 | 4.2 | Metabolite_Detected |  |  |  |  |  | 
2 | CC(C)(C)S(=O)(=O)c1cc2c(Nc3ccc4scnc4c3)ncnc2cc1OCCO |  |  |  |  |  |  | 4900 | Dose-dependent effect | 10 | 470 | 1.8 | 0.39
